Test [1] deals with HeLa. Nature of the test: Cytotoxicity against human HeLa cells assessed as reduction in cell viability using compound addition to cell culture cells in lag phase of growth and incubated for 48 hrs by MTT assay. It is filed as functional, cell-based. The settings on record: Homo sapiens, HeLa, 48 h; read-out: IC50.
The subject of test [2] is HeLa. In words: Cytotoxicity against human HeLa cells assessed as reduction in cell viability using compound addition to cell culture cells in log phase of growth and incubated for 48 hrs by MTT assay. The class given is functional, cell-based. Conditions: Homo sapiens, HeLa, 48 h; read-out: IC50.
The test system of test [3] is A549. Nature of the test: Cytotoxicity against human A549 cells assessed as reduction in cell viability using compound addition to cell culture cells in lag phase of growth and incubated for 48 hrs by MTT assay. Conditions: Homo sapiens, A549, 48 h; read-out: IC50. It is filed as functional, cell-based.
Test [4] relates to A549. Nature of the test: Cytotoxicity against human A549 cells assessed as reduction in cell viability using compound addition to cell culture cells in log phase of growth and incubated for 48 hrs by MTT assay. The settings on record: Homo sapiens, A549, 48 h; read-out: IC50. The class given is functional, cell-based.
For test [5], the system named is MCF7. Nature of the test: Cytotoxicity against human MCF7 cells assessed as reduction in cell viability using compound addition to cell culture cells in lag phase of growth and incubated for 48 hrs by MTT assay. The class given is functional, cell-based. The settings on record: Homo sapiens, MCF7, 48 h; read-out: IC50.
Test [6] has as its system MCF7. Nature of the test: Cytotoxicity against human MCF7 cells assessed as reduction in cell viability using compound addition to cell culture cells in log phase of growth and incubated for 48 hrs by MTT assay. It is filed as functional, cell-based. The settings on record: Homo sapiens, MCF7, 48 h; read-out: IC50.
The test system of test [7] is Vero. Nature of the test: Cytotoxicity against African green monkey Vero cells assessed as reduction in cell viability using compound addition to cell culture cells in lag phase of growth and incubated for 48 hrs by MTT assay. The class given is cell-based, Chlorocebus sabaeus. The settings on record: Chlorocebus sabaeus, Vero, 48 h; read-out: IC50.
Test [8] deals with Vero. Nature of the test: Cytotoxicity against African green monkey Vero cells assessed as reduction in cell viability using compound addition to cell culture cells in log phase of growth and incubated for 48 hrs by MTT assay. It is filed as cell-based, Chlorocebus sabaeus. Conditions: Chlorocebus sabaeus, Vero, 48 h; read-out: IC50.
In test [9] the test system is MCF7. Nature of the test: Ratio of IC50 for cytotoxicity against human MCF7 cells incubated for 48 hrs to IC50 for cytotoxicity against human MCF7 cells incubated for 72 hrs. The class given is functional.
Test [10] relates to MCF7 (Homo sapiens). In words: Ratio of IC50 for cytotoxicity against human MCF7 cells incubated for 48 hrs to IC50 for cytotoxicity against human MCF7 cells incubated for 72 hrs.
The test system of test [11] is MCF7 (Homo sapiens). Described as above. This is another data set of the same source.

With `CC1=C(COC(=O)CBr)C(=O)O[C@@H]([C@@H](C)[C@H]2CC[C@H]3[C@@H]4C[C@H]5O[C@]56[C@@H](O)C=CC(=O)[C@]6(C)[C@H]4CC[C@]23C)C1`, the IC50 in test [1] was 2.1 µM; in [2] it was 4.9 µM; in [3], 3.9 µM; in test [4], 4.8 µM; in [5] it was 1.2 µM; in [6], 0.9 µM. Also, the half-maximal inhibitory concentration (IC50) was determined as 1.1 µM in [7] and 1.6 µM in test [8]. The “Ratio IC50” value in [9], in [10] and in [11] was above 3 in each case.
`CC1=C(CO)C(=O)O[C@@H]([C@@H](C)[C@H]2CC[C@H]3[C@@H]4C[C@H]5O[C@]56[C@@H](O)C=C[C@@H](O)[C@]6(C)[C@H]4CC[C@]23C)C1`: the IC50 in test [1] was 15.8 µM; in test [2], 17.5 µM; in test [3] it was above 40 µM; in test [4] it was 17.3 µM; in test [5] it was 16.8 µM; in test [6], 7.5 µM. In addition, the results for the IC50 in test [7] and in test [8] were 7.1 µM and 6 µM, respectively. The “Ratio IC50” value in test [9], in test [10] and in [11] was above 3 in each case.
Regarding `CC1=C(COC(=O)c2cccc3ccccc23)C(=O)O[C@@H]([C@@H](C)[C@H]2CC[C@H]3[C@@H]4C[C@H]5O[C@]56[C@@H](O)C=CC(=O)[C@]6(C)[C@H]4CC[C@]23C)C1`, the IC50 is 2 µM in [1]; 3.5 µM in test [2]; 6.4 µM in test [3]; 13.7 µM in test [4]; 0.9 µM in test [5]; 2.2 µM in test [6]. Further, the figures for the IC50 in [7] and in [8] were 0.4 µM and 0.6 µM, respectively. The “Ratio IC50” value in test [9], in [10] and in test [11] was above 3 each time.
Regarding `CCCCCCCC(=O)OCC1=C(C)C[C@H]([C@@H](C)[C@H]2CC[C@H]3[C@@H]4C[C@H]5O[C@]56[C@@H](OC(=O)CCCCCCC)C=CC(=O)[C@]6(C)[C@H]4CC[C@]23C)OC1=O`, the IC50 was 33.8 µM in [1]; above 40 µM in test [2]; above 40 µM in [3]; above 40 µM in test [4]; 23.8 µM in test [5]; 33.5 µM in test [6]. The IC50 in test [7] is 3.3 µM; in test [8], 18.3 µM. Besides, the “Ratio IC50” value in test [9], in [10] and in test [11] was above 3 in each case.
With `CNc1ccccc1C(=O)OCC1=C(C)C[C@H]([C@@H](C)[C@H]2CC[C@H]3[C@@H]4C[C@H]5O[C@]56[C@@H](O)C=CC(=O)[C@]6(C)[C@H]4CC[C@]23C)OC1=O`, the IC50 in test [1] was determined as 1.6 µM; in [2], 4.2 µM; in test [3], 3.7 µM; in [4], 4.7 µM; in [5], 1.6 µM; in [6] it was 1 µM. Besides, the IC50 came to 1.2 µM in [7] and 1.6 µM in test [8]. Also, the “Ratio IC50” value in test [9], in test [10] and in test [11] was above 3 in each case.
Regarding `CC1=C(CO)C(=O)O[C@@H]([C@@H](C)[C@H]2CC[C@H]3[C@@H]4C[C@H]5O[C@]56[C@@H](O)[C@@H](N(Cc5ccccc5)Cc5ccccc5)CC(=O)[C@]6(C)[C@H]4CC[C@]23C)C1`, the IC50 is 22.2 µM in test [1]; above 40 µM in test [2]; 40 µM in test [3]; above 40 µM in [4]; 15.4 µM in test [5]; 18.5 µM in [6]. Besides, the IC50 stood at 32.9 µM in test [7] and 15.6 µM in test [8]. Further, the “Ratio IC50” value in [9], in [10] and in test [11] was above 3 throughout.
For the compound `CC1=C(CO)C(=O)O[C@@H]([C@@H](C)[C@H]2CC[C@H]3[C@@H]4C[C@@H](O)[C@]5(C=O)C=CC(=O)[C@]5(C)[C@H]4CC[C@]23C)C1`, the IC50 in test [2], in test [4], in [6] and in [8] was above 40 µM throughout. Besides, the “Ratio IC50” value in test [9], in test [10] and in [11] was above 3 each time.
As for `CCC(=O)OCC1=C(C)C[C@H]([C@@H](C)[C@H]2CC[C@H]3[C@@H]4C[C@H]5O[C@]56C(=O)C=CC(=O)[C@]6(C)[C@H]4CC[C@]23C)OC1=O`, the IC50 in test [1] came out at 4.7 µM; in [2], 6.8 µM; in test [3], 4.2 µM; in test [4], 8.3 µM; in test [5], 6 µM; in test [6] it was 2.3 µM. The half-maximal inhibitory concentration (IC50) in [7] is 3.8 µM; in test [8] it was 1.1 µM.
With `CC1=C(C=O)C(=O)O[C@@H]([C@@H](C)[C@H]2CC[C@H]3[C@@H]4C[C@H]5O[C@]56C(=O)C=CC(=O)[C@]6(C)[C@H]4CC[C@]23C)C1`, the 50% inhibitory concentration (IC50) in test [1] is 12.3 µM; in [2], 18.5 µM; in test [3], 16.9 µM; in test [4] it was 16.1 µM; in test [5], 8.9 µM; in [6], 11 µM. For the same compound, the IC50 in test [7] was determined as 12.8 µM; in test [8], 13.4 µM.
Take `CC1=C(COC(=O)c2cccc3ccccc23)C(=O)O[C@@H]([C@@H](C)[C@H]2CC[C@H]3[C@@H]4C[C@H]5O[C@]56[C@@H](OC(=O)c5cccc7ccccc57)C=CC(=O)[C@]6(C)[C@H]4CC[C@]23C)C1`: the IC50 in test [1], in test [2], in [3], in test [4], in test [5] and in [6] was above 40 µM each time. Also, the IC50 in [7] and in test [8] was above 40 µM each time.
For the compound `COCC1=C(C)C[C@H]([C@@H](C)[C@H]2CC[C@H]3[C@@H]4C[C@H]5O[C@]56[C@@H](O)C=CC(=O)[C@]6(C)[C@H]4CC[C@]23C)OC1=O`, the IC50 in test [1] is 3.2 µM; in test [2] it was 3.3 µM; in test [3] it was 4.2 µM; in [4] it was 5.3 µM; in test [5] it was 1.4 µM; in test [6], 1.9 µM. For the same compound, the IC50 came to 0.9 µM in test [7] and 1.5 µM in [8].
Take `CC(=O)OCC1=C(C)C[C@H]([C@@H](C)[C@H]2CC[C@H]3[C@@H]4C[C@H](Cl)[C@]5(O)[C@@H](O)C=CC(=O)[C@]5(C)[C@H]4CC[C@]23C)OC1=O`: the IC50 in test [1] worked out at 16.1 µM; in test [2] it was 14.8 µM; in test [3], 10.8 µM; in test [4] it was 17.1 µM; in test [5], 10.9 µM; in test [6], 7.2 µM. Moreover, the IC50 in test [7] turned out to be 4.8 µM; in test [8], 6.5 µM.
Regarding `CC1=C(CO)C(=O)O[C@@H]([C@@H](C)[C@H]2CC[C@H]3[C@@H]4C[C@H]5O[C@]56[C@@H](O)[C@@H](NCc5ccccc5)CC(=O)[C@]6(C)[C@H]4CC[C@]23C)C1`, the IC50 in [1] is 8.5 µM; in test [2], 11 µM; in test [3], 10 µM; in [4], 13.8 µM; in test [5] it was 7.2 µM; in test [6], 6.6 µM. In addition, the half-inhibitory concentration (IC50) in test [7] is 13.1 µM; in [8], 7.8 µM.
As to `COC(=O)CCC(=O)OCC1=C(C)C[C@H]([C@@H](C)[C@H]2CC[C@H]3[C@@H]4C[C@H](Cl)[C@]5(O)[C@@H](OC(=O)CCC(=O)OC)C=CC(=O)[C@]5(C)[C@H]4CC[C@]23C)OC1=O`, the half-maximal inhibitory concentration (IC50) in test [1] was 14 µM; in [2], 8 µM; in test [3], 7.8 µM; in test [4], 8.9 µM; in test [5], 5.5 µM; in [6], 4.8 µM. Also, the IC50 in test [7] is 3.9 µM; in [8], 4.1 µM.
As for `CCCCCCCCCCCC(=O)OCC1=C(C)C[C@H]([C@@H](C)[C@H]2CC[C@H]3[C@@H]4C[C@H]5O[C@]56[C@@H](O)C=CC(=O)[C@]6(C)[C@H]4CC[C@]23C)OC1=O`, the IC50 in [1] was 3.7 µM; in test [2], 4.7 µM; in test [3], 10.2 µM; in test [4], 12.2 µM; in test [5] it was 2.4 µM; in test [6], 3.5 µM. The IC50 in test [7] was determined as 1.9 µM; in [8], 4.7 µM.
